This passage reports EC50 and Emax results from patent US12281149B2, “Modulators of G-protein coupled receptors” (priority 2021, dated 2025).

SMILES strings stand for the structures. *1 amine or outer side, *2 acyl side, *3 side chain or, on linkers, in order; H or OH if unused. Where a SMILES comes first, the peptide text is derived from it. Side-chain parts run from the residue outwards. [ ]: non-standard residue; d: D form. The star is where a group is joined. Isobutyryl(2-(3-CN-5-F-Ph)) = CC(C)(C(=O)*)c1cc(F)cc(C#N)c1; C20 diacid = O=C(O)CCCCCCCCCCCCCCCCCCC(=O)*; γGlu = O=C(O)[C@H](CCC(=O)[*:2])N[*:1]; X22 = CC(C)(C(=O)*)c1ccc(C#N)cc1F; AEEA = NCCOCCOCC(=O)O; Aib = CC(C)(N)C(=O)O; βAla = NCCC(=O)O A value given as a limit tells only on which side of the number the result lay.

What all share (type): cell-based
For experiment [1], the target named is T1, GLP-1 receptor (Homo sapiens, UniProt P43220). The experiment can be described thus: HitHunter cAMP assay, GLP-1 receptor. Conditions: for EC50: CHO cells stably expressing human GLP-1 receptor, cAMP accumulation, 30 min, read-out: EC50 GLP-1R; for Emax: CHO cells, cAMP, normalized to maximum signal from GLP-1 (high) and DMSO (low), read-out: Emax GLP-1R.

The target of experiment [2] is T2, GIP receptor (Homo sapiens, UniProt P48546).
T2 sequence (P48546 22-466): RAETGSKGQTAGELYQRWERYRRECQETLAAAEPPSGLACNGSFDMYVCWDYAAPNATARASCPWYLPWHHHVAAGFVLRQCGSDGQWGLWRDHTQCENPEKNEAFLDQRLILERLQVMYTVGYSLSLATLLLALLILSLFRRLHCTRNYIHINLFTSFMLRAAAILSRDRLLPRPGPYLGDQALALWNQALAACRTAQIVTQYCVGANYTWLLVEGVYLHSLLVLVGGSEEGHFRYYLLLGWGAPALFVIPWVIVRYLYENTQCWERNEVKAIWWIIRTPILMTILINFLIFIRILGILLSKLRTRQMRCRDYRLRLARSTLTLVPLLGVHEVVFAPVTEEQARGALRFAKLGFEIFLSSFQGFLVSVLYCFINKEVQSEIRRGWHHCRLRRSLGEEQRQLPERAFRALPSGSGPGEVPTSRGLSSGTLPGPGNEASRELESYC
The experiment can be described thus: HitHunter cAMP assay, GIP receptor. The note with it: for EC50: CHO cells stably expressing GIP receptor, cAMP accumulation, 30 min, read-out: EC50 GIP-1R; for Emax: CHO cells, cAMP, normalized to maximum signal from GIP (high) and DMSO (low), read-out: Emax GIP-1R. A general note: cAMP levels reflect the balance of adenylyl cyclase and phosphodiesterase activity.

Experiment [3] concerns the target T2, GIP receptor. The experiment can be described thus: PathHunter β-arrestin assay, GIP receptor. On the set-up: host or cells: PathHunter CHO-K1 GIPR β-Arrestin Cell Line. Conditions: β-arrestin-2 recruitment, PathHunter CHO-K1 GIPR β-Arrestin Cell Line, 90 min at 37° C.; normalized to GIP; read-out: GIPR β Arrestin EC50. For orientation: Arrestin recruitment assays detect the binding of arrestin to an activated receptor.

Experiment [4] addresses T1, GLP-1 receptor. Briefly: PathHunter β-arrestin assay, GLP-1 receptor. Set-up: host or cells: PathHunter CHO-K1 GLP1R β-Arrestin Cell Line. Conditions: β-arrestin-2 recruitment, PathHunter CHO-K1 GLP1R β-Arrestin Cell Line, 90 min at 37° C.; normalized to GLP-1; read-out: GLP-1R β Arrestin EC50.

T1 sequence (P43220 24-463): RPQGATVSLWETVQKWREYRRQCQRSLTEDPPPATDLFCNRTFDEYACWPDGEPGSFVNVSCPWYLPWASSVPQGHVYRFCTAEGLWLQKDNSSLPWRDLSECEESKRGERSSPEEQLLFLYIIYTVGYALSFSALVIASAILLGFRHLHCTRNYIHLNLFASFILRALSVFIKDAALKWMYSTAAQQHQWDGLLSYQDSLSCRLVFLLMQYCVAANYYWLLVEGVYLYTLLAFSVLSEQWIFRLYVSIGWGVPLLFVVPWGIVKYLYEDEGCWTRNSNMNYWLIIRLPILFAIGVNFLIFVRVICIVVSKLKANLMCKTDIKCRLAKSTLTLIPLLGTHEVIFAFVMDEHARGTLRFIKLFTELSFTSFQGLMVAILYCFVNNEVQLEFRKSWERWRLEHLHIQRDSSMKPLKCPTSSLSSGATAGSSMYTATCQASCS

Take `CC[C@H](C)[C@H](NC(=O)[C@H](CC(C)C)NC(=O)[C@H](Cc1c[nH]c2ccccc12)NC(=O)[C@H](CCC(N)=O)NC(=O)[C@@H](NC(=O)[C@H](Cc1ccccc1)NC(=O)[C@H](C)NC(=O)[C@H](CCCCNC(=O)COCCOCCNC(=O)COCCOCCNC(=O)CC[C@H](NC(=O)CCCCCCCCCCCCCCCCCCC(=O)O)C(=O)O)NC(=O)[C@H](CCC(N)=O)NC(=O)[C@H](C)NC(=O)[C@@H](NC(=O)[C@H](CCCCN)NC(=O)[C@H](CC(=O)O)NC(=O)[C@H](CC(C)C)NC(=O)C(C)(C)NC(=O)[C@@H](NC(=O)[C@H](CO)NC(=O)[C@H](Cc1ccc(O)cc1)NC(=O)[C@H](CC(=O)O)NC(=O)[C@H](CO)NC(=O)[C@@H](NC(=O)[C@H](Cc1ccccc1)NC(=O)[C@@H](NC(=O)CNC(=O)[C@H](CCC(=O)O)NC(=O)CCNC(=O)C(C)(C)c1ccc(C#N)cc1F)[C@@H](C)O)[C@@H](C)O)[C@@H](C)CC)[C@@H](C)CC)C(C)C)C(=O)N[C@@H](C)C(=O)NCC(=O)NCC(=O)N1CCC[C@H]1C(=O)N[C@@H](CO)C(=O)N[C@@H](CO)C(=O)NCC(=O)N[C@@H](C)C(=O)N1CCC[C@H]1C(=O)N1CCC[C@H]1C(=O)N1CCC[C@H]1C(=O)N[C@@H](CO)C(N)=O` [Compound 149] ({X22-βAla}-EGTFTSDYSI[Aib]LDKIAQK([AEEA-AEEA-γGlu-C20 diacid])AFVQWLIAGGPSSGAPPPS-NH2): the concentration for a half-maximal effect (EC50) (as a rule, the concentration at which the effect is half-maximal) at GLP-1 receptor [1] was 0.1 to 1 nM; at GIP receptor [2], 1 to 10 nM; on GIP receptor [3], less than 1000 nM; on GLP-1 receptor [4], more than 1000 nM. Also, the values for the Emax at GLP-1 receptor [1] and at GIP receptor [2] were 98% and 96%, respectively.
With `CC[C@H](C)[C@H](NC(=O)[C@H](CC(C)C)NC(=O)[C@H](Cc1c[nH]c2ccccc12)NC(=O)[C@H](CC(N)=O)NC(=O)[C@@H](NC(=O)[C@H](Cc1ccccc1)NC(=O)[C@H](C)NC(=O)[C@H](CCCCNC(=O)COCCOCCNC(=O)COCCOCCNC(=O)CC[C@H](NC(=O)CCCCCCCCCCCCCCCCCCC(=O)O)C(=O)O)NC(=O)[C@H](CCC(N)=O)NC(=O)[C@H](C)NC(=O)[C@@H](NC(=O)[C@H](CCCCN)NC(=O)[C@H](CC(=O)O)NC(=O)[C@H](CC(C)C)NC(=O)C(C)(C)NC(=O)[C@@H](NC(=O)[C@H](CO)NC(=O)[C@H](Cc1ccc(O)cc1)NC(=O)[C@H](CC(=O)O)NC(=O)[C@H](CO)NC(=O)[C@@H](NC(=O)[C@H](Cc1ccccc1)NC(=O)[C@@H](NC(=O)CNC(=O)[C@H](CCC(=O)O)NC(=O)CCNC(=O)C(C)(C)c1cc(F)cc(C#N)c1)[C@@H](C)O)[C@@H](C)O)[C@@H](C)CC)[C@@H](C)CC)C(C)C)C(=O)N[C@@H](C)C(=O)NCC(=O)NCC(=O)N1CCC[C@H]1C(=O)N[C@@H](CO)C(=O)N[C@@H](CO)C(=O)NCC(=O)N[C@@H](C)C(=O)N1CCC[C@H]1C(=O)N1CCC[C@H]1C(=O)N1CCC[C@H]1C(=O)N[C@@H](CO)C(N)=O` [Compound 182] ({Isobutyryl(2-(3-CN-5-F-Ph))-βAla}-EGTFTSDYSI[Aib]LDKIAQK([AEEA-AEEA-γGlu-C20 diacid])AFVNWLIAGGPSSGAPPPS-NH2), the EC50 is 0.1 to 1 nM on GLP-1 receptor [1], 10 to 100 nM on GIP receptor [2], less than 1000 nM at GIP receptor [3] and more than 1000 nM at GLP-1 receptor [4]. Further, the maximal response (Emax) (as a rule, the greatest response seen or fitted, relative to the assay's reference) came out at 96% on GLP-1 receptor [1] and 98% at GIP receptor [2].
